Test results as given in patent US6346098B1, “Methods and kits for locally administering an active agent to an interstitial space of a host” (The Board of Trustees of the Leland Stanford Junior …, priority 2000, dated 2002).

Columns and labels:
[1] = Coronary venous injection of Evans Blue dye via AIV or MCV, regional myocardial infiltration; format: in vivo, pigs; conditions: LV apex, anterior interventricular septum and anterior wall via AIV, inferoposterior wall via MCV
Procedure: Methods and Results: In 13 anesthetized pigs the coronary sinus was cannulated percutaneously and a balloon-tipped catheter was advanced to the anterior interventricular vein (AIV) or middle cardiac vein (MCV). […] Injection was performed with hyperbaric pressure in 8/13 cases (61%).

[2] = total group of 13 pigs, coronary venous injection

| SMILES | infiltration of targeted myocardial regions [1] | persistence of contrast in myocardium (videodensitometric analysis) [2] | time for 50% clearance from myocardium (videodensitometric analysis) ([2]; FIG. 1) |
| --- | --- | --- | --- |
| Cc1cc(-c2ccc(/N=N/c3ccc4c(S(=O)(=O)O)cc(S(=O)(=O)O)c(N)c4c3O)c(C)c2)ccc1/N=N/c1ccc2c(S(=O)(=O)O)cc(S(=O)(=O)O)c(N)c2c1O [Evans Blue dye, Evans Blue] | localized, regional infiltration was reproducibly accomplished |  |  |
| CC(=O)Nc1c(I)c(NC(C)=O)c(I)c(C(=O)O)c1I [diatrizoate] |  | at least 30 minutes | ~4 min |
